Drawing on patent US20160222014A1, “COMPOUNDS FOR REGULATING FAK AND/OR SRC PATHWAYS” (ASANA BIOSCIENCES, LLC, priority 2013, published 2016), this text covers IC50 for 59 compounds.

pIC50: −log10 of the molar value.

For the first assay, the target named is T1, recombinant human FAK1 (Homo sapiens, UniProt Q05397).
T1 construct: fused on or other part: N-terminal 6xHis tag
T1 sequence (Q05397 422-680 limits assumed): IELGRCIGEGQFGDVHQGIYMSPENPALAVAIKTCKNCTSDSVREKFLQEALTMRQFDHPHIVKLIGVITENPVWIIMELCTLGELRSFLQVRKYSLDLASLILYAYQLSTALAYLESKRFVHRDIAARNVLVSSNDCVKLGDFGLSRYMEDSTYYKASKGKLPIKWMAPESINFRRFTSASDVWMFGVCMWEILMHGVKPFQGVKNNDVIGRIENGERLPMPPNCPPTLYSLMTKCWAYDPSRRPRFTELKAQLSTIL
As to the kind of experiment: FAK1 HTRF assay. It counts as biochemical. An outline of the steps:
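His-tagged human FAK1 (residues 692–end, Sf9-expressed), 10 nM final, with 0.5 μM biotinylated gastrin-precursor Tyr87 peptide and a 10 μM final reagent in pH 7.4 buffer, 45 min at rt. Detection used Eu anti-pTyr antibody plus SA-APC (665/620 nm). Compounds top concentration 10 μM; IC50 from % inhibition.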
Take `COc1cc(N2CCC(N(C)C)CC2)ccc1Nc1ncc2c(n1)N(S(=O)(=O)c1cccc3cccnc13)CC2(C)C` [Example 650]: the pIC50 was > 7.70. For `CC(=O)N(C)c1ccccc1Cn1ccc2cnc(Nc3ccc(N4CCC(N(C)C)CC4)cc3)nc21` [Example 788], the negative-log IC50 (pIC50) is < 6.00. Take `COc1cc(N2CCC(O)CC2)ccc1Nc1cc2c(cn1)cnn2S(=O)(=O)c1cccc2cccnc12` [Example 396]: the pIC50 is > 7.70. With `COc1cc(N2CCC(OC)CC2)ccc1Nc1cc2c(ccn2S(=O)(=O)c2cccc3cccnc23)cn1` [Example 430], the pIC50 was > 7.70.

As to `CN(c1ncccc1Cn1cc2cnc(Nc3ccc4c(c3)CCC(=O)N4)nc2n1)S(C)(=O)=O` [Example 190], the pIC50 was < 6.00. Turning to `C[C@H]1CN(c2ccc(Nc3ncc4ccn(Cc5ccccc5NS(=O)(=O)CCCF)c4n3)c(F)c2)CCN1` [Example 729], the pIC50 is < 6.00.

On to `COc1ccccc1S(=O)(=O)n1ccc2cnc(Nc3cncnc3)nc21` [Example 146], for which the pIC50 is < 6.00. On the same count and under the same terms, with `CN(c1ccccc1Cn1ccc2cnc(Nc3ccc(N4CCN5CCCC5C4)cc3)nc21)S(C)(=O)=O` (stereo not shown) [Example 496] the figure was > 7.70. Turning to `CN(c1ccccc1Cn1ccc2cnc(Nc3ccc(N4CCOCC4)cc3)cc21)S(C)(=O)=O` [Example 385], the pIC50 is > 7.70. On the same count and under the same terms, with `Cc1cc(Nc2ncc3ccn(Cc4ccccc4N(C)S(C)(=O)=O)c3n2)ccc1N1CCNCC1` [Example 447] the figure was > 7.70.

With `C[C@H]1CN(c2ccc(Nc3ncc4ccn(Cc5ccccc5N(C)S(=O)(=O)CCCF)c4n3)c(F)c2)CCN1` [Example 730], the pIC50 was < 6.00.

The target of a further assay is T2, Recombinant Src enzyme (Homo sapiens, UniProt P12931).
T2 construct: purchased Millipore 14-326; host or cells: Sf21 insect cells
T2 sequence (P12931 whole entry): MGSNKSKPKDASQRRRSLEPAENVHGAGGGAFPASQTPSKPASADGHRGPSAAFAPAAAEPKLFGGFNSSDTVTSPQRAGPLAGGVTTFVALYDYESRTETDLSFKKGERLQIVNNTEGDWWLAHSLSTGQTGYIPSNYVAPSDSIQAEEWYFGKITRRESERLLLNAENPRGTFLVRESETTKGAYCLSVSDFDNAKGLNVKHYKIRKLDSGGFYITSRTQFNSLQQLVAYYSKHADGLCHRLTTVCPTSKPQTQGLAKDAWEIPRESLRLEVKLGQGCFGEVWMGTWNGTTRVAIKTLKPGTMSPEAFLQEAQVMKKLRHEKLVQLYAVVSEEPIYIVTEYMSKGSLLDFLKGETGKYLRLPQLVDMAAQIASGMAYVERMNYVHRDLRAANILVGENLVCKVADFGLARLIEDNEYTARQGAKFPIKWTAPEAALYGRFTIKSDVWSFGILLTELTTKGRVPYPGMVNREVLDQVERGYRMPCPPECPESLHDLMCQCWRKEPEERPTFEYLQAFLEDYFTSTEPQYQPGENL
As to the kind of experiment: Src HTRF assay. The assay is classed as biochemical. The protocol:
Enzyme assay buffer, supplements, and compounds were prepared as described in the FAK HTRF assay.
Recombinant Src enzyme expressed in Sf21 insect cells was obtained (Millipore, Cat No. 14-326, Lot # D8CN006U-K). A 35 μM stock was used at a final concentration of 5 nM in the assay.
Tyk2 synthetic peptide-Biotinylated-N-terminal tag-[…]
A custom made substrate, a Tyk2 synthetic peptide, biotinylated with an N-terminal tag was obtained (Biopeptide and Sigma, Cat. No. 14918001 VC80021). A 100 μM stock was used at a final concentration of 0.5 μM in the assay.
A 10 mM stock in 100 μL enzyme assay buffer pH7.4 was prepared freshly and used at a final concentration of 10 μM in the assay.
Dasatinib (Bristol-Myers Squibb)
The assay procedure was the same as discussed above.
Take `COc1cc(N2CCC(N(C)C)CC2)ccc1Nc1ncc2c(n1)N(S(=O)(=O)c1cccc3cccnc13)CC2(C)C` [Example 650]: the pIC50 was < 6.00. In the case of `CC(=O)N(C)c1ccccc1Cn1ccc2cnc(Nc3ccc(N4CCC(N(C)C)CC4)cc3)nc21` [Example 788], the pIC50 was < 6.00.

With `COc1cc(N2CCC(O)CC2)ccc1Nc1cc2c(cn1)cnn2S(=O)(=O)c1cccc2cccnc12` [Example 396], the pIC50 is < 6.00. Consider `COc1cc(N2CCC(OC)CC2)ccc1Nc1cc2c(ccn2S(=O)(=O)c2cccc3cccnc23)cn1` [Example 430], for which the pIC50 was < 6.00.

Turning to `CN(c1ncccc1Cn1cc2cnc(Nc3ccc4c(c3)CCC(=O)N4)nc2n1)S(C)(=O)=O` [Example 190], the pIC50 is < 6.00.

As to `C[C@H]1CN(c2ccc(Nc3ncc4ccn(Cc5ccccc5NS(=O)(=O)CCCF)c4n3)c(F)c2)CCN1` [Example 729], the pIC50 is < 6.00.

Consider `COc1ccccc1S(=O)(=O)n1ccc2cnc(Nc3cncnc3)nc21` [Example 146], for which the pIC50 is < 6.00. Still for that read-out and setting: with `CN(c1ccccc1Cn1ccc2cnc(Nc3ccc(N4CCN5CCCC5C4)cc3)nc21)S(C)(=O)=O` (stereo not shown) [Example 496] the figure was > 7.70. Same read-out and setting: with `CC(C)(O)C(=O)Nc1cccc(Nc2ncc3ccn(S(=O)(=O)c4ccccc4OC(F)(F)F)c3n2)c1` [Example 110] the figure was < 6.00; with `CN(c1ccccc1Cn1ccc2cnc(Nc3ccc(N4CCOCC4)cc3)cc21)S(C)(=O)=O` [Example 385], < 6.00. As for `C[C@H]1CN(c2ccc(Nc3cc4c(cn3)cnn4Cc3cccnc3N(C)S(C)(=O)=O)cc2)CCN1` [Example 781], the pIC50 is < 6.00. For the compound `COc1ccc(Cn2ccc3cnc(Nc4ccc(N5CCNCC5)cc4)nc32)c(N(C)S(C)(=O)=O)c1` [Example 772], the pIC50 is < 6.00.

Take `CN(c1cccc(Cn2ccc3cnc(Nc4ccc5c(c4)CCC(=O)N5)nc32)n1)S(C)(=O)=O` [Example 141]: the pIC50 was < 6.00.

With `COc1cc(Nc2cc3c(ccn3Cc3cccnc3N(C)S(C)(=O)=O)cn2)ccc1N1CCNCC1` [Example 364], the pIC50 was < 6.00. On to `CN(c1ncccc1Cn1ccc2cnc(Nc3ccccc3F)nc21)S(C)(=O)=O` [Example 155], for which the pIC50 is < 6.00. Same read-out and setting: next, `CN(c1ncccc1Cn1ccc2cnc(Nc3c(F)cccc3F)nc21)S(C)(=O)=O` [Example 167]: < 6.00; `COc1ccccc1S(=O)(=O)n1ncc2cnc(Nc3ccc4c(c3)CCC(=O)N4)cc21` [Example 130]: < 6.00; `CC(=O)Nc1cccc(Nc2cc3c(ccn3Cc3ccccc3OC(F)F)cn2)c1` [Example 98]: < 6.00. Consider `COc1ccc(Cn2ccc3cnc(Nc4ccc(N5CCN[C@H](C)C5)cc4)nc32)c(N(C)S(C)(=O)=O)c1` [Example 671], for which the pIC50 is < 6.00. For `Cc1cc(Nc2ncc3ccn(Cc4ccccc4N(C)S(C)(=O)=O)c3n2)ccc1N1CCNCC1` [Example 447], the pIC50 is > 7.70. Turning to `CN(c1ncccc1CN1CCc2cnc(Nc3ccc(N4CCNCC4)cc3)nc21)S(C)(=O)=O` [Example 433], the pIC50 is < 6.00. Still for that read-out and setting: next, `C[C@H]1CN(c2ccc(Nc3ncc4ccn(Cc5ccccc5N(C)S(=O)(=O)CCCF)c4n3)c(F)c2)CCN1` [Example 730]: < 6.00; `CN(c1ncccc1Cn1ccc2cnc(Nc3ccncc3)nc21)S(C)(=O)=O` [Example 138]: < 6.00. On to `CN1c2c(Cn3ccc4cnc(Nc5ccc(N6CCNCC6)cc5)nc43)cccc2CS1(=O)=O` [Example 756], for which the pIC50 is < 6.00. Turning to `C[C@H]1CN(c2ccc(Nc3ncc4ccn(Cc5ccccc5N(C)S(C)(=O)=O)c4n3)nc2)CCN1` [Example 565], the pIC50 was < 6.00. On to `C[C@H]1CN(c2ccc(Nc3cc4c(ccn4Cc4cccnc4N(C)S(C)(=O)=O)cn3)cc2)CCN1` [Example 616], for which the pIC50 is < 6.00. Consider `CN(c1ncccc1Cn1ccc2cnc(Nc3ccc(N4CCC(O)CC4)cc3)cc21)S(C)(=O)=O` [Example 384], for which the pIC50 is < 6.00. In the case of `CC1(C)CN(S(=O)(=O)c2cccc3cccnc23)c2nc(Nc3ccc(N4CCN(C5CC5)CC4)cc3)ncc21` [Example 771], the pIC50 is < 6.00.

On to `O=S(=O)(c1ccccc1OC(F)(F)F)n1ccc2cnc(Nc3ccc(N4CCOCC4)cc3)nc21` [Example 112], for which the pIC50 is < 6.00.

For `COc1cc(N2CCNCC2)ccc1Nc1cc2c(ccn2S(=O)(=O)c2cccc3ccc(C)nc23)cn1` [Example 382], the pIC50 is < 6.00. The same measure, in the same setting: with `CC1(C)CN(S(=O)(=O)c2cccc3cccnc23)c2nc(Nc3ccc(N4CCC(CO)CC4)cc3)ncc21` [Example 625] the figure was < 6.00. With `CN(c1ccccc1Cn1cc(C#N)c2cnc(Nc3ccc(N4CCNCC4)cc3)nc21)S(C)(=O)=O` [Example 731], the pIC50 is < 6.00. For the compound `CC(=O)Nc1ccc(Nc2cc3c(ccn3Cc3ccccc3OC(F)F)cn2)cc1` [Example 97], the pIC50 was < 6.00. On the same count and under the same terms, next, `CN(C)C1CCN(c2ccc(Nc3ncc4ccn(Cc5ccc(C#N)cc5N(C)S(C)(=O)=O)c4n3)cc2)CC1` [Example 689]: < 6.00.

Regarding `CC(=O)Nc1ccc(S(=O)(=O)n2ccc3cnc(Nc4ccc5c(c4)CCC(=O)N5)nc32)cc1` [Example 192], the pIC50 was < 6.00. As for `CN(c1ncccc1Cn1ccc2cnc(Nc3ccc(N4CCN(CCO)CC4)cc3)cc21)S(C)(=O)=O` [Example 393], the pIC50 is < 6.00. On the same count and under the same terms, with `C[C@H]1CN(c2ccc(Nc3ncc4nnn(Cc5cccnc5N(C)S(C)(=O)=O)c4n3)cc2)CCN1` [Example 790] the figure was < 6.00.

For `O=C1Cc2cc(Nc3cc4c(cn3)cnn4S(=O)(=O)c3cccc4cccnc34)ccc2N1` [Example 354], the pIC50 is < 6.00. The same measure, in the same setting: next, `O=C1CCc2cc(Nc3cc4c(ccn4S(=O)(=O)c4cccc(OC(F)(F)F)c4)cn3)ccc2N1` [Example 56]: < 6.00.

Regarding `C[C@H]1CNCCN1c1ccc(Nc2cc3c(ccn3S(=O)(=O)c3ccccc3C#N)cn2)cc1` [Example 477], the pIC50 is < 6.00. In the case of `CN(c1ncccc1Cn1cc(F)c2cnc(Nc3ccc(N4CCNCC4)cc3)nc21)S(C)(=O)=O` [Example 722], the pIC50 is < 6.00. The same measure, in the same setting: next, `COc1ccc(Cn2ccc3cnc(Nc4ccc(N5CCN[C@@H](C)C5)cc4)nc32)c(N(C)S(C)(=O)=O)c1` [Example 714]: < 6.00; `COc1c(Nc2ncc3ccn(S(=O)(=O)c4cccc5cccnc45)c3n2)ccc(N2CCNCC2)c1F` [Example 370]: < 6.00. As to `Cc1ccnc2c(S(=O)(=O)n3ccc4cnc(Nc5ccc(N6CCC(O)CC6)cc5)nc43)cccc12` [Example 402], the pIC50 was < 6.00. Same read-out and setting: with `CN(c1ncccc1Cn1ccc2cnc(Nc3cccc(-c4nnn[nH]4)c3)nc21)S(C)(=O)=O` [Example 188] the figure was < 6.00; with `CC(c1ccccc1Cn1ccc2cnc(Nc3ccc(N4CCC(N(C)C)CC4)cc3)nc21)S(C)(=O)=O` (stereo not shown) [Example 791], < 6.00. On to `CC(=O)Nc1cccc(Nc2ncc3ccn(S(=O)(=O)c4cccc(OC(F)(F)F)c4)c3n2)c1` [Example 40], for which the pIC50 was < 6.00.

For the compound `COc1cc(C(=O)N2CCOCC2)ccc1Nc1ncc2ccn(Cc3ccccc3N(C)S(C)(=O)=O)c2n1` [Example 503], the pIC50 was < 6.00. The same measure, in the same setting: next, `C[C@H]1CN(c2ccc(Nc3ncc4ccn(Cc5cccc6c5N(C)S(=O)(=O)C6)c4n3)cc2)CCN1` [Example 764]: < 6.00; `CC(=O)Nc1cccc(Nc2ncc3ccn(S(=O)(=O)c4ccc(C)cc4)c3n2)c1` [Example 39]: < 6.00; `O=C(Nc1ccc(Nc2cc3c(cn2)cnn3S(=O)(=O)c2cccc3cccnc23)cc1)C1CC1` [Example 375]: < 6.00. `CN(C)C1CN(c2ccc(Nc3ncc4c(n3)N(S(=O)(=O)c3cccc5cccnc35)CC4(C)C)cc2)C1` [Example 603]: the negative logarithm of the IC50 (pIC50) was < 6.00. On the same count and under the same terms, next, `Cc1ccccc1Nc1ncc2ccn(Cc3cccnc3N(C)S(C)(=O)=O)c2n1` [Example 148]: < 6.00. Still for that read-out and setting: with `CN(C)C1CCN(c2ccc(Nc3ncc4c(C#N)cn(Cc5cccnc5N(C)S(C)(=O)=O)c4n3)cc2)CC1` [Example 728] the figure was < 6.00; with `CN(c1ncccc1Cn1ncc2cnc(Nc3ccc(N4CCNCC4)cc3)nc21)S(C)(=O)=O` [Example 241], > 7.70. The same measure, in the same setting: next, `COc1ccccc1S(=O)(=O)n1ccc2cnc(Nc3cccnc3)nc21` [Example 143]: < 6.00. Consider `Cc1cn(Cc2cccnc2N(C)S(C)(=O)=O)c2nc(Nc3ccc(N4CCNCC4)cc3)ncc12` [Example 719], for which the pIC50 is < 6.00.

For the compound `C[C@H]1CN(c2ccc(Nc3ncc4ccn(Cc5ccc(C#N)cc5N(C)S(C)(=O)=O)c4n3)cc2)CCN1` [Example 685], the pIC50 was < 6.00. For the compound `O=S(=O)(c1ccc2ncsc2c1)n1ccc2cnc(Nc3ccc(N4CCNCC4)cc3)nc21` [Example 234], the pIC50 was < 6.00.
